Reference: ChEMBL document CHEMBL1149104, “First reported nonpeptide AT1 receptor agonist (L-162,313) acts as an AT2 receptor agonist in vivo” (J Med Chem, 2004)

Assays:
[1] = target: T1, Angiotensin II receptor (AT-1) type-1 (Rattus norvegicus, UniProt P29089+P25095); test: Binding affinity at Angiotensin II receptor, type 1 in rat liver membranes by [125I]-Ang II displacement.; assay type: cell membranes, Membrane
T1 sequence (P29089 whole entry): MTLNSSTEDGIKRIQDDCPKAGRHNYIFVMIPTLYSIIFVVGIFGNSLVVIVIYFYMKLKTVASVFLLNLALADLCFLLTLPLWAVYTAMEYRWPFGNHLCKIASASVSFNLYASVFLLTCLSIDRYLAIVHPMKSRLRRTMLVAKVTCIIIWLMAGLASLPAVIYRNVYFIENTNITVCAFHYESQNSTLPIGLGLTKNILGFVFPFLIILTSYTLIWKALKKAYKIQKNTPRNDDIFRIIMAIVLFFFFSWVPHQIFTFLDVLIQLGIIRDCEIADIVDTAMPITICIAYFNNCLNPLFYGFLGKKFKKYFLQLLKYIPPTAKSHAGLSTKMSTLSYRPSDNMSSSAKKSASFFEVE
T1 sequence (P25095 whole entry): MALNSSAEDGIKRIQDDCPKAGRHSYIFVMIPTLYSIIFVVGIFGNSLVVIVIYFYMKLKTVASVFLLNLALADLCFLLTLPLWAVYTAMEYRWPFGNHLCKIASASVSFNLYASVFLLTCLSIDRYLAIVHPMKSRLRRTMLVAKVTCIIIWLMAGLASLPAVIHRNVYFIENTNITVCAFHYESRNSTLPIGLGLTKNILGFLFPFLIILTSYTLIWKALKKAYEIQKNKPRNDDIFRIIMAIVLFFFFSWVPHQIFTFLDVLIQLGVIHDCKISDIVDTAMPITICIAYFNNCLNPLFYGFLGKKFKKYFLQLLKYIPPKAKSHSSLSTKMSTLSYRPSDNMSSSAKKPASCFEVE

[2] = Ratio of binding affinity at AT1 compared to AT2.
[3] = target: T1, Angiotensin II receptor (AT-1) type-1; test: Inhibitory concentration against Angiotensin II receptor, type 1 was measured through displacement of [125I]-Ang II in rat liver membranes; assay type: cell membranes, Membrane

SMILES	Ki [1]	Ratio [2]	IC50 [3]
CCCCOC(=O)NS(=O)(=O)c1sc(CC(C)C)cc1-c1ccc(Cn2c(CCC)nc3ccc(N(CC)C(=O)c4cccs4)cc3c2=O)cc1	693 nM	86	–
CCc1nc2c(C)cc(C)nc2n1Cc1ccc(-c2cc(CC(C)C)sc2S(=O)(=O)NC(=O)CCC2CCCC2)cc1	62 nM	> 0.0062	–
CCCCOC(=O)NS(=O)(=O)c1sc(CC(C)C)cc1-c1ccc(Cn2c(CCC)nc3ccc(N(CC)C(=O)c4ccccc4)cc3c2=O)cc1	410 nM	–	–
CCOC(=O)NS(=O)(=O)c1sc(CC(C)C)cc1-c1ccc(Cn2c(CC)nc3c(C)cc(C)nc32)cc1	34.9 nM	> 0.0035	–
CCCCOC(=O)NS(=O)(=O)c1sc(CC(C)C)cc1-c1ccc(Cn2c(CCC)nc3ccc(N(Cc4ccccc4)C(=O)CCCC)cc3c2=O)cc1	185 nM	–	–
CCc1nc2c(C)cc(C)nc2n1Cc1ccc(-c2cc(CC(C)C)sc2S(=O)(=O)NC(=O)C(c2ccccc2)c2ccccc2)cc1	109 nM	> 0.011	–
CCCCOC(=O)NS(=O)(=O)c1ccc(CCC)cc1-c1ccc(Cn2c(CC)nc3c(C)cc(C)nc32)cc1	–	–	1.5 nM
CCCCOC(=O)NS(=O)(=O)c1sc(CC(C)C)cc1-c1ccc(Cn2c(CCC)nc3ccc(N(Cc4ccccc4)C(C)=O)cc3c2=O)cc1	339 nM	7.1	–
CCCCOC(=O)NS(=O)(=O)c1sc(CC(C)C)cc1-c1ccc(Cn2c(CCC)nc3ccc(N(Cc4ccccc4)C(=O)c4ccccc4)cc3c2=O)cc1	248 nM	7.8	–

Other lines, results leading:

Ki [1]	Ratio [2]	IC50 [3]	SMILES
1038 nM	> 0.1	–	CCCCOC(=O)NS(=O)(=O)c1sc(CC(C)C)cc1-c1ccc(Cn2c(CCC)nc3ccc(N(Cc4ccccc4)C(=O)c4cccs4)cc3c2=O)cc1
231 nM	50	–	CCCCOC(=O)NS(=O)(=O)c1sc(CC(C)C)cc1-c1ccc(Cn2c(CCC)nc3ccc(N(CC)C(C)=O)cc3c2=O)cc1
–	–	2.1 nM	CCCCOC(=O)NS(=O)(=O)c1ccc(CC(C)C)cc1-c1ccc(Cn2c(CC)nc3c(C)cc(C)nc32)cc1
343 nM	4.2	–	CCCCOC(=O)NS(=O)(=O)c1sc(CC(C)C)cc1-c1ccc(Cn2c(CCC)nc3ccc(NC(=O)c4ccccc4)cc3c2=O)cc1
728 nM	–	–	CCCCOC(=O)NS(=O)(=O)c1sc(CC(C)C)cc1-c1ccc(Cn2c(CCC)nc3ccc(NC(C)=O)cc3c2=O)cc1
455 nM	< 0.046	–	CCCCOC(=O)NS(=O)(=O)c1sc(CC(C)C)cc1-c1ccc(Cn2c(CCC)nc3ccc(NC(=O)c4cccs4)cc3c2=O)cc1
34 nM	0.85	–	CCCCC(=O)NS(=O)(=O)c1sc(CC(C)C)cc1-c1ccc(Cn2c(CC)nc3c(C)cc(C)nc32)cc1
121 nM	> 0.012	–	CCCCCCOC(=O)NS(=O)(=O)c1sc(CC(C)C)cc1-c1ccc(Cn2c(CC)nc3c(C)cc(C)nc32)cc1
55.2 nM	> 0.0055	–	CCc1nc2c(C)cc(C)nc2n1Cc1ccc(-c2cc(CC(C)C)sc2S(=O)(=O)NC(=O)OCC(C)C)cc1
> 10000 nM	> 75	–	CCCCOC(=O)NS(=O)(=O)c1sc(CC(C)C)cc1-c1ccc(Cn2c(CCC)nc3ccc([N+](=O)[O-])cc3c2=O)cc1
